According to patent publication US11953501B2, “Compositions and methods to detect gastrointestinal disease” (The Board of Supervisors of Louisiana State University and …, priority 2016, dated 2024):
Where two headings read alike, the source gives them in different places.

Biological target: T1, intestinal alkaline phosphatase (iAP) (Homo sapiens, UniProt P09923)
T1 construct: The supernatant contained proteins secreted in the gut lumen, on which our analysis is focused; from tissue; host or cells: stool supernatant (200 mg/mL slurry in water, centrifuged) from human preterm infants
T1 sequence (P09923 20-503 limits assumed): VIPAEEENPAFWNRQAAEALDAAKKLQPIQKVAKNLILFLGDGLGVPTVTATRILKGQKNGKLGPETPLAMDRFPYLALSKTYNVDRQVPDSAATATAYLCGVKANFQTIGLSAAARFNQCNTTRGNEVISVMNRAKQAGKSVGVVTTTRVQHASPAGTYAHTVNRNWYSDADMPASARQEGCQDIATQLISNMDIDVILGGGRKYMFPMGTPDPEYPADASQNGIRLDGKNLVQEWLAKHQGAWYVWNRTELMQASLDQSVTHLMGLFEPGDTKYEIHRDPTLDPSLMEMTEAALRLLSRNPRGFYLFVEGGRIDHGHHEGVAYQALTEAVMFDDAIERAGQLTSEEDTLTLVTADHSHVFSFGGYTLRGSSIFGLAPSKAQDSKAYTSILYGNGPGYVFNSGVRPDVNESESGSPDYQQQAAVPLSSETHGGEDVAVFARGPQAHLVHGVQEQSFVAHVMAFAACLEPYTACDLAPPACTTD
Assay: Fecal iAP catalytic activity, 4-methylumbelliferyl phosphate (MUP) fluorometric assay with and without L-phenylalanine
Type: biochemical
Details: 10 mM L-Phe, spread is SD, read-out: inhibition of AP activity by L-Phe
Method: Fecal iAP catalytic activity: Alkaline phosphatase activity was measured with use of 4-methylumbelliferyl phosphate (MUP) as a fluorescent substrate (Abcam, ab83371) in the presence and absence of L-phenylalanine, an inhibitor of iAP. Relative fluorescence units (RFUs) at 360/440 nm were measured using a Spectra Max M2e spectrophotometer (Molecular Devices, Sunnyvale, CA). Ninety-six-well black optical bottom plates were used. Standards and negative controls were prepared for each plate run. Total AP activity was determined as: AP activity (mU/mL)=(B×dilution factor)/(T×V), in which B is nmol of product; V is volume of sample added to the well; T is reaction time; and U is the amount of enzyme causing hydrolysis of 1 μmol of MUP per minute at pH 10.0 and 25° C. […]
Fecal iAP Activity—Alkaline phosphatase activity was ascertained with the use of 4-methylumbelliferyl phosphate as a fluorescent substrate ab83371 (Abeam). […] Relative fluorescence units (RFUs) at 360/440 nm wavelengths were measured using a Spectra Max M2e spectrophotometer (Molecular Devices, Sunnyvale, CA). […] Reaction wells for samples, standards and negative background controls were prepared each time the assay was performed and total alkaline phosphatase activity was determined using: ALP activity (mU/ml)=(B/T)/V x dilution factor […]

- inhibition at 10000 µM (stool samples from NEC patients): 90%
- inhibition at 10000 µM (stool samples from control patients): 91%
Structure (SMILES): N[C@@H](Cc1ccccc1)C(=O)O [L-Phe, L-phenylalanine]
